Results published in the NIST ThermoML archive (doi:10.1021/je0302001).

Experiment: mn = molality of the nth substance listed, in mol/kg
Details: for surface tension liquid-gas: Ring tensiometer; for viscosity / speed of sound: 101.3 kPa, Liquid; for viscosity: Capillary tube (Ostwald / Ubbelohde) method

O=[N+]([O-])[O-].O=[N+]([O-])[O-].[Zn+2] [nitric acid, zinc salt] + O
Details | speed of sound [m/s] | surface tension liquid-gas [mN/m] | viscosity [mPa·s]
273.15 K, m1 = 0.0875 | 1413 | – | –
273.15 K, m1 = 0.1329 | 1413.5 | – | 1.863
273.15 K, m1 = 0.2263 | – | 75.65 | –
273.15 K, m1 = 0.2466 | 1422.7 | – | 1.905
273.15 K, m1 = 0.334 | – | 75.79 | –
273.15 K, m1 = 0.3388 | 1429.7 | – | 1.95
273.15 K, m1 = 0.6111 | 1454.8 | – | 2.081
273.15 K, m1 = 0.6198 | – | 76.35 | –
273.15 K, m1 = 0.6405 | 1457 | – | 2.103
273.15 K, m1 = 0.8228 | – | 77.03 | –
273.15 K, m1 = 1.113 | 1500.1 | – | 2.431
273.15 K, m1 = 1.258 | 1516.9 | – | 2.573
273.15 K, m1 = 1.259 | – | 78.02 | –
273.15 K, m1 = 1.549 | – | 78.63 | –
273.15 K, m1 = 1.551 | 1544.4 | – | 2.833
273.15 K, m1 = 1.818 | – | 78.99 | –
273.15 K, m1 = 1.906 | 1578.6 | – | 3.306
273.15 K, m1 = 2.145 | 1600.1 | – | 3.662
273.15 K, m1 = 2.222 | – | 80.42 | –
273.15 K, m1 = 2.29 | 1612.6 | – | 3.902
273.15 K, m1 = 2.292 | 1612.3 | – | –
273.15 K, m1 = 2.344 | 1617.4 | – | 3.935
273.15 K, m1 = 2.526 | – | 81.29 | –
273.15 K, m1 = 2.721 | – | 81.96 | –
273.15 K, m1 = 2.91 | 1663.1 | – | 5.033
273.15 K, m1 = 3.426 | – | 83.68 | –
273.15 K, m1 = 3.472 | 1707.7 | – | 6.559
273.15 K, m1 = 4.011 | – | 85.35 | –
273.15 K, m1 = 4.075 | 1740.8 | – | 8.684
273.15 K, m1 = 4.231 | – | 85.77 | –
273.15 K, m1 = 4.817 | 1780.2 | – | 12.49
273.15 K, m1 = 5.133 | – | 87.84 | –
273.15 K, m1 = 5.224 | 1794 | – | 15.05
278.15 K, m1 = 0.0875 | 1435.8 | – | –
278.15 K, m1 = 0.1329 | 1436.3 | – | 1.585
278.15 K, m1 = 0.2466 | 1444.2 | – | 1.626
278.15 K, m1 = 0.3388 | 1450.4 | – | 1.667
278.15 K, m1 = 0.6111 | 1472.6 | – | 1.788
278.15 K, m1 = 0.6405 | 1474.8 | – | 1.807
278.15 K, m1 = 1.113 | 1514.5 | – | 2.096
278.15 K, m1 = 1.258 | 1530.4 | – | 2.221
278.15 K, m1 = 1.551 | 1555 | – | 2.436
278.15 K, m1 = 1.906 | 1586.2 | – | 2.838
278.15 K, m1 = 2.145 | 1606.1 | – | 3.15
278.15 K, m1 = 2.29 | 1618.1 | – | 3.351
278.15 K, m1 = 2.292 | 1617.3 | – | –
278.15 K, m1 = 2.344 | 1622.2 | – | 3.38
278.15 K, m1 = 2.91 | 1664.7 | – | 4.293
278.15 K, m1 = 3.472 | 1703.6 | – | 5.554
278.15 K, m1 = 4.075 | 1737.6 | – | 7.273
278.15 K, m1 = 4.817 | 1772.3 | – | 10.32
278.15 K, m1 = 5.224 | 1786.4 | – | 12.33
283.15 K, m1 = 0.0875 | 1456.4 | – | –
283.15 K, m1 = 0.1329 | 1455.8 | – | 1.368
283.15 K, m1 = 0.2263 | – | 74.42 | –
283.15 K, m1 = 0.2466 | 1463.2 | – | 1.406
283.15 K, m1 = 0.334 | – | 74.63 | –
283.15 K, m1 = 0.3388 | 1468.8 | – | 1.444
283.15 K, m1 = 0.6111 | 1487.8 | – | 1.559
283.15 K, m1 = 0.6198 | – | 75.26 | –
283.15 K, m1 = 0.6405 | 1491.2 | – | 1.571
283.15 K, m1 = 0.8228 | – | 75.94 | –
283.15 K, m1 = 1.113 | 1526.3 | – | 1.827
283.15 K, m1 = 1.258 | 1540.8 | – | 1.936
283.15 K, m1 = 1.259 | – | 77.01 | –
283.15 K, m1 = 1.549 | – | 77.42 | –
283.15 K, m1 = 1.551 | 1564 | – | 2.13
283.15 K, m1 = 1.818 | – | 78.05 | –
283.15 K, m1 = 1.906 | 1592.7 | – | 2.478
283.15 K, m1 = 2.145 | 1611.1 | – | 2.737
283.15 K, m1 = 2.222 | – | 79.29 | –
283.15 K, m1 = 2.29 | 1618.7 | – | 2.901
283.15 K, m1 = 2.292 | 1619.7 | – | –
283.15 K, m1 = 2.344 | 1626.1 | – | 2.932
283.15 K, m1 = 2.526 | – | 80.48 | –
283.15 K, m1 = 2.721 | – | 80.75 | –
283.15 K, m1 = 2.91 | 1665.6 | – | 3.705
283.15 K, m1 = 3.426 | – | 82.59 | –
283.15 K, m1 = 3.472 | 1701.3 | – | 4.774
283.15 K, m1 = 4.011 | – | 84.21 | –
283.15 K, m1 = 4.075 | 1733.5 | – | 6.175
283.15 K, m1 = 4.231 | – | 84.55 | –
283.15 K, m1 = 4.817 | 1765.9 | – | 8.641
283.15 K, m1 = 5.133 | – | 86.75 | –
283.15 K, m1 = 5.224 | 1779.8 | – | 10.24
283.15 K, m1 = 5.797 | 1795 | – | –
283.15 K, m1 = 6.245 | – | 88.17 | –
288.15 K, m1 = 0.0875 | 1473.6 | – | –
288.15 K, m1 = 0.1329 | 1473.1 | – | 1.195
288.15 K, m1 = 0.2466 | 1479.5 | – | 1.229
288.15 K, m1 = 0.3388 | 1484.8 | – | 1.265
288.15 K, m1 = 0.6111 | 1503 | – | 1.368
288.15 K, m1 = 0.6405 | 1505.2 | – | 1.38
288.15 K, m1 = 1.113 | 1537.3 | – | 1.609
288.15 K, m1 = 1.258 | 1550.2 | – | 1.705
288.15 K, m1 = 1.551 | 1571.7 | – | 1.875
288.15 K, m1 = 1.906 | 1598.9 | – | 2.178
288.15 K, m1 = 2.145 | 1615 | – | 2.403
288.15 K, m1 = 2.29 | 1625 | – | 2.545
288.15 K, m1 = 2.292 | 1623.1 | – | –
288.15 K, m1 = 2.344 | 1629.2 | – | 2.57
288.15 K, m1 = 2.91 | 1666 | – | 3.231
288.15 K, m1 = 3.472 | 1699.5 | – | 4.124
288.15 K, m1 = 4.075 | 1729.1 | – | 5.31
288.15 K, m1 = 4.817 | 1761.2 | – | 7.338
288.15 K, m1 = 5.224 | 1769.8 | – | 8.634
288.15 K, m1 = 5.797 | 1786.4 | – | –
288.15 K, m1 = 6.34 | 1797.7 | – | –
293.15 K, m1 = 0.2263 | – | 73.17 | –
293.15 K, m1 = 0.334 | – | 73.3 | –
293.15 K, m1 = 0.6198 | – | 74.02 | –
293.15 K, m1 = 0.8228 | – | 74.83 | –
293.15 K, m1 = 1.259 | – | 75.92 | –
293.15 K, m1 = 1.549 | – | 76.32 | –
293.15 K, m1 = 1.818 | – | 76.87 | –
293.15 K, m1 = 2.222 | – | 78.11 | –
293.15 K, m1 = 2.526 | – | 79 | –
293.15 K, m1 = 2.721 | – | 79.59 | –
293.15 K, m1 = 3.426 | – | 81.48 | –
293.15 K, m1 = 4.011 | – | 83.01 | –
293.15 K, m1 = 4.231 | – | 83.39 | –
